Laboratory results reported in patent US20220280661A1, “GLUCOCORTICOID RECEPTOR RADIOLIGANDS AND METHODS FOR THEIR PREPARATION AND USE” (The Regents of the University of California, priority 2019, published 2022).

Experiments:
[1] = blood collected 30 minutes post injection
Description: Serum Stability Studies. Mice were euthanized, received radiotracer (30 MBq in 100-150 μL formulation) via tail injection, and dissected at dedicated time points post injection. The blood was collected and an aliquot (50 uL) was mixed with CH3CN (50 uL). The serum proteins were precipitated out and followed by a centrifugation (10000 rpm for 5 min). The cleared supernatant (50 uL) was collected and further analyzed by RAD-iTLC.
To confirm stability, blood was collected at 30 minutes post injection, a time point after which specific binding in vivo with (±)—^18F-YJH08 occurred.

[2] = Post mortem biodistribution of [18F]-YJH08 at 30, 60, 90 min; assay type: in vivo, mouse; settings: C57B16/J mice
Description: For a broader survey of radiotracer biodistribution post mortem, mice were euthanized after radiotracer injection with CO2(g) asphyxiation and dissected at dedicated time points post injection. The blood and tissues were removed, washed, dried and weighed. The activity of each tissue was measured with a gamma counter. All data was decay corrected. PRISM software was used to express a percentage (% ID/g) of the injected dose per gram of tissue. […] Table 2 provides a tabular representation of the biodistribution data collected 30, 60, 90 minutes after injection of [18F]-YJH08 in C57B16/J mice. The data are represented as mean standard deviation of the % ID/g.

PC3 tumors = assay: [18F]-YJH08 uptake in PC3 tumors implanted in the renal capsule; assay type: in vivo, mouse; settings: renal capsule implant, nu/nu mice
Description: For tumor imaging studies, male nu/nu mice were used for the renal capsule tumor implants. The mice were anesthetized with isofluorane (2-3%) and performed with a dorsal midline incision (0.5 cm). With pressure applied on the muscle wall, one kidney was pulled gently and carefully through the small incision. PC3 cells ([…] in 50 μL PBS) were injected under the kidney capsule, which was lifted from the kidney parenchyma. The kidney was placed into the mouse, and the incision closed with 3 surgical sutures. Carprofen (5-10 mg/kg) was administered to the mice during recovery. Mice were observed carefully over 24 hours for the signs of post-operative bleeding, pain and (or) other complications. After surgery, a 14 T Agilent small animal MRI was used to monitor the tumor progression. Animals were studied approximately 10 days post injection of tumor cells.
Lastly, digital autoradiography of the affected kidney was applied to define relative uptake of the radiotracer in the tumor and normal kidney parenchyma (FIGS. 5B and 5C). The radiotracer uptake in the tumor was qualitatively much higher than the level observed in the kidney.

CC1=CC(C)(C)Nc2ccc3c(c21)C(Cc1ccc(F)cc1)Oc1cccc(O[11CH3])c1-3 (racemic) [(±)-^11C-YJH08]
radiotracer stable in blood (ITLC) [1]: > 90%

COc1cccc2c1-c1ccc3c(c1C(Cc1ccc([18F])cc1)O2)C(C)=CC(C)(C)N3 (racemic) [[18F]-YJH08, [^18F]-5-(4-fluorobenzyl)-10-methoxy-2,2,4-trimethyl-2,5-dihydro-1H-chromeno[3,4-f]quinoline]
radiotracer uptake, Adrenal Gland ([2]; 30 min after injection): 20.02 ± 2.21 % ID/g
radiotracer uptake, Blood ([2]; 30 min after injection): 0.85 ± 0.1 % ID/g
radiotracer uptake, Bone ([2]; 30 min after injection): 1.11 ± 0.15 % ID/g
radiotracer uptake, Brain ([2]; 30 min after injection): 1.68 ± 0.14 % ID/g
radiotracer uptake, Heart ([2]; 30 min after injection): 3.04 ± 0.75 % ID/g
radiotracer uptake, Kidney ([2]; 30 min after injection): 4.5 ± 0.5 % ID/g
radiotracer uptake, Large intestine ([2]; 30 min after injection): 1.33 ± 0.35 % ID/g
radiotracer uptake, Liver ([2]; 30 min after injection): 11.03 ± 0.89 % ID/g
radiotracer uptake, Lung ([2]; 30 min after injection): 2.65 ± 0.19 % ID/g
radiotracer uptake, Muscle ([2]; 30 min after injection): 1.49 ± 0.2 % ID/g
radiotracer uptake, Pancreas ([2]; 30 min after injection): 4.5 ± 0.15 % ID/g
radiotracer uptake, Small intestine ([2]; 30 min after injection): 19.05 ± 3.27 % ID/g
radiotracer uptake, Spleen ([2]; 30 min after injection): 1.59 ± 0.13 % ID/g
radiotracer uptake, Stomach ([2]; 30 min after injection): 1.88 ± 0.96 % ID/g
radiotracer uptake, Supraspinal BAT ([2]; 30 min after injection): 14.41 ± 3.42 % ID/g
radiotracer uptake, Adrenal Gland ([2]; 60 min after injection): 9.43 ± 0.08 % ID/g
radiotracer uptake, Blood ([2]; 60 min after injection): 0.57 ± 0.02 % ID/g
radiotracer uptake, Bone ([2]; 60 min after injection): 0.61 ± 0.15 % ID/g
radiotracer uptake, Brain ([2]; 60 min after injection): 1.33 ± 0.06 % ID/g
radiotracer uptake, Heart ([2]; 60 min after injection): 1.33 ± 0.21 % ID/g
radiotracer uptake, Kidney ([2]; 60 min after injection): 2.35 ± 0.34 % ID/g
radiotracer uptake, Large intestine ([2]; 60 min after injection): 1.23 ± 0.43 % ID/g
radiotracer uptake, Liver ([2]; 60 min after injection): 7.7 ± 0.69 % ID/g
radiotracer uptake, Lung ([2]; 60 min after injection): 2.02 ± 0.29 % ID/g
radiotracer uptake, Muscle ([2]; 60 min after injection): 1.15 ± 0.03 % ID/g
radiotracer uptake, Pancreas ([2]; 60 min after injection): 2.63 ± 0.05 % ID/g
radiotracer uptake, Small intestine ([2]; 60 min after injection): 8.61 ± 2.68 % ID/g
radiotracer uptake, Spleen ([2]; 60 min after injection): 0.83 ± 0.02 % ID/g
radiotracer uptake, Stomach ([2]; 60 min after injection): 1.63 ± 0.92 % ID/g
radiotracer uptake, Supraspinal BAT ([2]; 60 min after injection): 16.4 ± 4.93 % ID/g
radiotracer uptake, Adrenal Gland ([2]; 90 min after injection): 5.72 ± 2.32 % ID/g
radiotracer uptake, Blood ([2]; 90 min after injection): 0.49 ± 0.06 % ID/g
radiotracer uptake, Bone ([2]; 90 min after injection): 0.58 ± 0.16 % ID/g
radiotracer uptake, Brain ([2]; 90 min after injection): 0.97 ± 0.03 % ID/g
radiotracer uptake, Heart ([2]; 90 min after injection): 0.92 ± 0.14 % ID/g
radiotracer uptake, Kidney ([2]; 90 min after injection): 1.86 ± 0.26 % ID/g
radiotracer uptake, Large intestine ([2]; 90 min after injection): 6.67 ± 4.73 % ID/g
radiotracer uptake, Liver ([2]; 90 min after injection): 8.43 ± 1.38 % ID/g
radiotracer uptake, Lung ([2]; 90 min after injection): 1.39 ± 0.1 % ID/g
radiotracer uptake, Muscle ([2]; 90 min after injection): 0.85 ± 0.18 % ID/g
radiotracer uptake, Pancreas ([2]; 90 min after injection): 1.9 ± 0.41 % ID/g
radiotracer uptake, Small intestine ([2]; 90 min after injection): 7.67 ± 2.34 % ID/g
radiotracer uptake, Spleen ([2]; 90 min after injection): 0.74 ± 0.15 % ID/g
radiotracer uptake, Stomach ([2]; 90 min after injection): 2.61 ± 1.54 % ID/g
radiotracer uptake, Supraspinal BAT ([2]; 90 min after injection): 14.58 ± 1.91 % ID/g
radiotracer uptake in PC3 tumor (PC3 tumors): ~3 % ID/g
